Measurements taken from patent US5883107A, “Arginine mimic derivatives as enzyme inhibitors” (Corvas International, Inc., priority 1995, dated 1999).
Where two headings read alike, the source gives them in different places.

Columns and labels:
[1] = test system: thrombotic occlusion of the rat carotid artery; assay: Rat model of FeCl3-induced platelet-dependent arterial thrombosis; assay type: in vivo; conditions: iv, 1 h, read-out: ED50, dose that prevents complete thrombotic occlusion in 50% of animals tested
trypsin = target: T1, trypsin (Bos taurus, UniProt P00760); assay: In vitro enzyme assay for specificity: trypsin; assay type: biochemical, bovine; conditions: 0.5 nM enzyme, 30 minute incubation, read-out: IC50 for inhibition of trypsin
T1 construct: bovine pancreatic trypsin; purchased Worthington Biochemical Corp. TRL3; host or cells: bovine pancreas
T1 sequence (P00760 24-246): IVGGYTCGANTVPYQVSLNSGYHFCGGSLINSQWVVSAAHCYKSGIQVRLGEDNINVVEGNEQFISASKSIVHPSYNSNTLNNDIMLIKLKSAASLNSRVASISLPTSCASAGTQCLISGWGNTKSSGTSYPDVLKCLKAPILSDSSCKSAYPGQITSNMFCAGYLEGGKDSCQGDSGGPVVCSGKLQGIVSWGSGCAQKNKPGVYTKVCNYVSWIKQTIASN
Description: Trypsin catalytic activity was determined using the chromogenic substrate, S-2222 (benzoyl-L-isoleucine-L-glutamic acid-[gamma-methyl ester]-L-arginine-p-nitroanilide), which was obtained from Kabi Diagnostica. […] Purified (3×-crystallized; TRL3) bovine pancreatic trypsin was obtained from Worthington Biochemical Corp. The enzyme was reconstituted in deionized water and diluted into HBSA prior to assay in which the final concentration was 0.5 nM.

thrombin = conditions: cited from earlier work
alpha-thrombin = alpha-thrombin (Homo sapiens, UniProt P00734); assay: In vitro enzyme assay for specificity: thrombin; assay type: biochemical; conditions: first of the two values in the cell (two isomeric pair), or the only value; 0.25 nM enzyme, 30 minute incubation; read-out: IC50 for inhibition of alpha-thrombin amidolytic activity
Description: The buffer used for all assays was HBSA (10 mM HEPES, pH 7.5, 150 mM sodium chloride, 0.1% bovine serum albumin). […] Following a 30 minute incubation at ambient temperature, 50 microliters of the substrate at the concentrations specified below, was added to the wells yielding a final total volume of 200 microliters.
Thrombin catalytic activity was determined using the chromogenic substrate Pefachrome t-PA (CH3 SO2 -D-hexahydrotyrosine-glycyl-L-arginine-p-nitroanilide, obtained from Pentapharm Ltd.).

thrombosis = conditions: literature; cited from earlier work
[2] = test system: trypsin, plasmin and kallikrein; conditions: literature; cited from earlier work
[3] = test system: atherosclerotic rabbit femoral artery; conditions: following mechanical damage; literature; cited from earlier work
[4] = literature; cited from earlier work
[5] = literature; cited from earlier work; remark: listed apart in the source
[6] = first of the two values in the cell (two isomeric pair), or the only value

CCCC(CCC)C(=O)N[C@@H](CC(=O)OC)C(=O)N1CCC[C@H]1C(=O)N[C@H](C=O)CC1CCCN(C(=N)N)C1 (single isomer, unassigned) [Isomer 11B, alpha-N-(propylpentanoyl)-aspartyl(beta-methyl ester)-prolyl-3-[3-piperidyl-(N-guanidino)]-L-alaninal]
ED50 [1]: 5 mg/kg | IC50 (trypsin; [6]): 67 nM | IC50 (trypsin; second of the two values in the cell (two isomeric pair)): 113 nM

N=C(N)NCCC[C@H](NC(=O)[C@@H]1CCCN1C(=O)[C@H](N)Cc1ccccc1)C(=O)CCl [P-PACK, D-phenylalanyl-prolyl-arginine-chloromethyl ketone]
inhibition of thrombin (in words) (thrombin): inhibit thrombin by directly binding to the active site

CCCC(CCC)C(=O)N[C@@H](Cc1nnn[nH]1)C(=O)N1CCC[C@H]1C(=O)N[C@H](C=O)CC1CCCN(C(=N)N)C1 (single isomer, unassigned) [Isomer 19B]
IC50 (alpha-thrombin): 3.11 nM | IC50 (trypsin; [6]): 150 nM

CCCC(CCC)C(=O)N[C@@H](CC(=O)OC)C(=O)N1CCC[C@H]1C(=O)N[C@@H](C=O)CC1CCCN(C(=N)N)C1 (single isomer, unassigned) [Isomer 11B(D)]
IC50 (trypsin; [6]): 2590 nM

CC1CNc2c(cccc2S(=O)(=O)N[C@@H](CCCNC(=N)N)C(=O)N2CC[C@@H](C)C[C@@H]2C(=O)O)C1 (stereo partly drawn) [Argatroban, 2R,4R-4-methyl-1-[N-2-(3-methyl-1,2,3,4-tetrahydro-8-quinolinesulfonyl)-L-argininal]-2-piperdinecarboxylic acid]
inhibition of thrombin (in words) (thrombin): bind directly to the active site of thrombin | antithrombotic effect (in words) (thrombosis): potent antithrombotic agent in several experimental models of acute arterial thrombosis

CS(=O)(=O)O.CS(=O)(=O)O.N=C(N)Nc1ccc(C(=O)Oc2ccc3cc(C(=N)N)ccc3c2)cc1 [FUT 175, 6-amidino-2-naphthyl-4-guanidinobenzoate dimethanesulfonate]
selectivity (in words) [2]: non-selective

Hirudin
inhibition of thrombin (in words) (thrombin; literature): one of the most potent inhibitors of thrombin known | antithrombotic effect (in words) (thrombosis): potent antithrombotic agent in vivo | smooth muscle proliferation and restenosis (in words) [3]: effectively inhibit smooth muscle proliferation and the associated restenosis

N=C(N)c1ccc(CC(=O)C(=O)O)cc1 [APPA, 4-amidinophenylpyruvic acid]
pharmacokinetics (in words) [4]: favourable pharmacokinetics | selectivity (in words) [2]: non-selective, inhibiting trypsin, plasmin and kallikrein | toxicity (in words) [5]: low toxicity

CC(=O)N[C@H](Cc1ccccc1)C(=O)N1CCC[C@H]1C(=O)N[C@@H](CCCNC(=N)N)B(O)O [Ac-(D-Phe)-Pro-boroArg, acetyl-D-phenylalanyl-prolyl-boroarginine]
inhibition of thrombin (in words) (thrombin; literature): inhibit thrombin by directly binding to the active site

N=C(N)NCCC[C@@H](C=O)NC(=O)[C@@H]1CCCN1C(=O)[C@H](N)Cc1ccccc1 [D-Phe-Pro-Arg-a1, D-phenylalanyl-prolyl-argininal]
inhibition of thrombin (in words) (thrombin): inhibit thrombin by directly binding to the active site
